Among the data in PubChem BioAssay (NCI) are GI50 and TGI values, retold here.

Values joined by “and” are separate entries in the source; they are usually repeats but may differ in a detail not shown here. Identical values can stand only once.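 In this assay, cells in 96-well plates receive the compound at five concentrations for 48 hours. Endpoints are linearly interpolated between the surrounding concentrations. GI50 marks 50% less growth. TGI marks complete inhibition of growth.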

Some test systems named below: HOP-62 NSCLC; NCI-H522 lung; RXF 393 renal; OVCAR-8 ovarian; SK-MEL-28 melanoma; NCI/ADR-RES ovarian; A549 NSCLC; UO-31 renal; M14 melanoma; OVCAR-3 ovarian.
Common to all, as to assay: NCI tumour cell line growth inhibition, 48 h

With `N=C(N)c1ccc(CS(=O)(=O)F)cc1`, the GI50 with HOP-62 NSCLC, with NCI-H522 lung, in the test on RXF 393 renal, with OVCAR-8 ovarian, in the test with SK-MEL-28 melanoma and with NCI/ADR-RES ovarian was over 100 µM each time. The GI50 with A549 NSCLC, in the test with UO-31 renal, in the test on M14 melanoma and in the test on OVCAR-3 ovarian was over 100 µM in each case. In addition, the TGI in the test with HOP-62 NSCLC, in the test on NCI-H522 lung, with RXF 393 renal, in the test with OVCAR-8 ovarian, in the test with SK-MEL-28 melanoma and in the test on NCI/ADR-RES ovarian was over 100 µM throughout. Moreover, the TGI with A549 NSCLC, in the test on UO-31 renal, with M14 melanoma and in the test on OVCAR-3 ovarian was over 100 µM throughout.

On to `CS(=O)(=O)OCCCCOS(C)(=O)=O`, for which the GI50 in the test with HOP-62 NSCLC is 492 µM; in the test on NCI-H522 lung, 466 µM; in the test on RXF 393 renal, 523 µM; in the test with OVCAR-8 ovarian, over 873 µM; in the test with SK-MEL-28 melanoma, 980 µM; in the test on NCI/ADR-RES ovarian, over 1000 µM. For the same molecule, the GI50 in the test on A549 NSCLC is 538 µM; with UO-31 renal, over 886 µM; in the test with M14 melanoma it was 765 µM; with OVCAR-3 ovarian it was over 1000 µM. Besides, the TGI is 244 µM and 983 µM with HOP-62 NSCLC; 250 µM and > 1000 µM in the test on NCI-H522 lung; 223 µM and > 1000 µM in the test with RXF 393 renal; 250 µM and > 1000 µM in the test with OVCAR-8 ovarian; 232 µM and > 1000 µM in the test on SK-MEL-28 melanoma; 250 µM and > 1000 µM with NCI/ADR-RES ovarian. For the same molecule, the TGI is 243 µM and > 1000 µM in the test with A549 NSCLC; 250 µM and > 1000 µM in the test on UO-31 renal; 250 µM and > 1000 µM with M14 melanoma; over 1000 µM with OVCAR-3 ovarian.

As for `O=C1c2cccc3c([N+](=O)[O-])ccc(c23)C(=O)N1CCCCl`, the GI50 is 6.6 µM in the test on HOP-62 NSCLC; 4.34 µM in the test with NCI-H522 lung; 3.85 µM in the test on RXF 393 renal; 3.86 µM in the test on OVCAR-8 ovarian; 3.84 µM in the test with SK-MEL-28 melanoma; 8.42 µM in the test on NCI/ADR-RES ovarian. The GI50 with A549 NSCLC is over 10 µM; in the test on UO-31 renal, over 10 µM; in the test with M14 melanoma, 5.85 µM; with OVCAR-3 ovarian, 2.2 µM. Besides, the TGI in the test on HOP-62 NSCLC, in the test on NCI-H522 lung, in the test with RXF 393 renal, in the test on OVCAR-8 ovarian, in the test with SK-MEL-28 melanoma and with NCI/ADR-RES ovarian was over 10 µM each time. Moreover, the TGI in the test on A549 NSCLC is over 10 µM; in the test with UO-31 renal it was over 10 µM; with M14 melanoma it was over 10 µM; in the test with OVCAR-3 ovarian it was 4.72 µM.

As for `CC(C)(C)n1nc(C2CC2)cc1NC(=O)Nc1ccc(Cl)cc1`, the TGI with HOP-62 NSCLC, in the test with NCI-H522 lung, with RXF 393 renal, in the test with OVCAR-8 ovarian, with SK-MEL-28 melanoma and in the test on NCI/ADR-RES ovarian was over 100 µM throughout. The TGI with A549 NSCLC, in the test on UO-31 renal, in the test on M14 melanoma and in the test on OVCAR-3 ovarian was over 100 µM in each case.

Regarding `Cc1cc(NCCCNc2ccnc3cc(Cl)ccc23)nc(Nc2ccc(C(=O)N3CCCCC3)cc2)n1`, the GI50 was 2.4 µM with HOP-62 NSCLC; 2.19 µM in the test with NCI-H522 lung; 1.8 µM in the test with RXF 393 renal; 3.61 µM with OVCAR-8 ovarian; 2 µM in the test on SK-MEL-28 melanoma; 14.9 µM with NCI/ADR-RES ovarian. The GI50 was 3.56 µM with A549 NSCLC, 2.16 µM in the test on UO-31 renal, 2.12 µM in the test with M14 melanoma and 2.36 µM in the test with OVCAR-3 ovarian. Also, the TGI stood at 7.43 µM in the test with HOP-62 NSCLC; 4.45 µM in the test with NCI-H522 lung; 3.67 µM in the test with RXF 393 renal; 12.4 µM in the test on OVCAR-8 ovarian; 3.75 µM with SK-MEL-28 melanoma; 35.9 µM in the test with NCI/ADR-RES ovarian. Further, the TGI in the test on A549 NSCLC came out at 10.4 µM; in the test with UO-31 renal, 5.87 µM; in the test on M14 melanoma, 4.06 µM; in the test with OVCAR-3 ovarian it was 5.91 µM.

For `Nc1ncnc2c1ncn2C1OC(CO)CC1O` (stereo not given), the TGI in the test on HOP-62 NSCLC is over 100 µM; in the test with NCI-H522 lung it was 38.7 µM; in the test with RXF 393 renal, over 100 µM; in the test on OVCAR-8 ovarian, 49.6 µM; in the test with SK-MEL-28 melanoma, over 100 µM; with NCI/ADR-RES ovarian, 55.2 µM. For the same molecule, the TGI in the test on A549 NSCLC, in the test on UO-31 renal, in the test with M14 melanoma and in the test on OVCAR-3 ovarian was over 100 µM throughout.

Consider `COc1ccc(Nc2[nH]n(C3=Nc4ccccc4Sc4ccccc43)c(=O)c2C#N)cc1`, for which the GI50 in the test on HOP-62 NSCLC is 3.06 µM; in the test with NCI-H522 lung it was 0.4 µM; with RXF 393 renal, 1.73 µM; in the test with OVCAR-8 ovarian, 2.01 µM; with SK-MEL-28 melanoma, 3.87 µM; in the test on NCI/ADR-RES ovarian, 1.43 µM. For the same molecule, the GI50 with A549 NSCLC is 1.62 µM; in the test with UO-31 renal, 1.02 µM; in the test with M14 melanoma, 2.49 µM; in the test on OVCAR-3 ovarian it was 1.78 µM. The TGI with HOP-62 NSCLC was over 100 µM; with NCI-H522 lung, 3.87 µM; with RXF 393 renal, 9.75 µM; in the test with OVCAR-8 ovarian it was over 100 µM; with SK-MEL-28 melanoma, over 100 µM; with NCI/ADR-RES ovarian, 6.64 µM. Moreover, the TGI was over 100 µM in the test on A549 NSCLC, over 100 µM with UO-31 renal, 9.64 µM in the test with M14 melanoma and 8.64 µM with OVCAR-3 ovarian.

Turning to `COc1ccccc1CN=C1NC(=O)/C(=C/c2ccc3ncccc3c2)S1`, the GI50 in the test on HOP-62 NSCLC was 7.64 µM; in the test on NCI-H522 lung, 4.96 µM; in the test on RXF 393 renal, 8.75 µM; in the test on OVCAR-8 ovarian, 8.17 µM; in the test on SK-MEL-28 melanoma, over 15.3 µM; with NCI/ADR-RES ovarian, 11.2 µM. In addition, the GI50 in the test on A549 NSCLC was 6.93 µM; in the test on UO-31 renal, 7.37 µM; in the test on M14 melanoma, 14.5 µM; in the test with OVCAR-3 ovarian, 7.13 µM. Further, the TGI in the test on HOP-62 NSCLC was over 20.2 µM; with NCI-H522 lung, 13 µM; in the test with RXF 393 renal, over 25 µM; in the test on OVCAR-8 ovarian, over 25 µM; in the test on SK-MEL-28 melanoma it was over 25 µM; in the test with NCI/ADR-RES ovarian it was over 25 µM. Moreover, the TGI was over 25 µM in the test on A549 NSCLC, over 21.7 µM in the test on UO-31 renal, over 25 µM in the test with M14 melanoma and 24.9 µM in the test with OVCAR-3 ovarian.
